Counter-ions that a name gives are not always drawn.
Experiments:
[1] = Oral BIBN4096BS Delivery (plasma BIBN4096BS by LC/MS/MS after oral gavage with delivery agent compound); conditions: previous studies; baseline (no delivery agent stated)
Method: Oral gavage (PO) dosing solutions of delivery agent compound and the Calcitonin gene-related peptide antagonist, 1-Piperidinecarboxamide. […] (BIBN4096BS) in water were prepared. […] The final dosing solutions were prepared by mixing the delivery agent compound with a BIBN4096BS stock solution and diluting to the desired volume (usually 1.0 mL). If necessary, the pH of the mixture was adjusted by the addition of aliquots of aqueous hydrochloric acid solution of an appropriate normality until the final pH of the dosing solution was below 7.0. The final compound amounts per dose were 25 mg/kg of BIBN4096BS, 200 mg/kg of delivery agent compound, in a total volume of 1 mL/kg.
The typical dosing and sampling protocols were as follows. Male Sprague-Dawley rats weighing between 200-250 g were fasted for 24 hours and administered ketamine (44 mg/kg) and chlorpromazine (1.5 mg/kg) 15 minutes prior to dosing. A dosing group of five rats was administered one of the dosing solutions. For oral gavage (PO) dosing, an 11 cm Rusch 8 French catheter was adapted to a 1 mL syringe with a pipette tip. The syringe was filled with dosing solution by drawing the solution through the catheter, which was then wiped dry. […] Plasma BIBN4096BS concentrations were quantified by using a liquid chromatography/mass spectrometry/mass spectrometry assay method using UV detection. […]

melting point [°C] | baseline values of plasma BIBN4096BS [1] | SMILES
70 to 73 | – | NC(=O)c1ccc(CCCCCCN2CCOCC2)cc1O [Compound 5, 4-(6-morpholin-4-ylhexyl)-salicylamide]
129 to 132 | – | CN(C)c1ccc(CNC(=O)c2ccccc2O)cc1 [Compound 4, N-(4-dimethylaminobenzyl) salicylamide]
– | about 10 ng/mL | NCCCCC(NC(=O)C(Cc1cc(Br)c(O)c(Br)c1)NC(=O)N1CCC(N2Cc3ccccc3NC2=O)CC1)C(=O)N1CCN(c2ccncc2)CC1 (stereo not drawn) [BIBN4096BS, 1-Piperidinecarboxamide. N-[2-[[5-amino-1-[[4-(4-pyridinyl)-1-piperazinyl)carbonyl]pentyl]amino]-1-[(3,5-dibromo-4-hydroxyphenyl)methyl]-2-oxoethyl]-4(1,4-dihydro-2-oxo-3(2H0-quinazolinyl)-.[R-(R*,S*)]]
151 to 153 | – | COc1ccc(C(=O)NCCCCCCCCN)c(O)c1 [Compound 18, N-(2-hydroxy-4-methoxybenzoyl)-1,8-diaminooctane]
111 to 113 | – | CCN(CC)CCNC(=O)c1ccccc1O (as salt: citrate) [Compound 3, N-[2-(diethylamino)ethyl]-2-hydroxybenzamide Mono-citrate]
107 to 109 | – | CCN(CC)CCNC(=O)c1cc(Cl)ccc1O (as salt: citrate) [Compound 1, N-[2-(diethylamino)ethyl]-5-chloro-2-hydroxybenzamide Mono-citrate]
